Measurements reported in publication PMC4166525 (Organic letters, 2013).

Molecular target: T1, EgtB (Mycolicibacterium smegmatis, UniProt A0R5N0)
T1 sequence (A0R5N0 1-428): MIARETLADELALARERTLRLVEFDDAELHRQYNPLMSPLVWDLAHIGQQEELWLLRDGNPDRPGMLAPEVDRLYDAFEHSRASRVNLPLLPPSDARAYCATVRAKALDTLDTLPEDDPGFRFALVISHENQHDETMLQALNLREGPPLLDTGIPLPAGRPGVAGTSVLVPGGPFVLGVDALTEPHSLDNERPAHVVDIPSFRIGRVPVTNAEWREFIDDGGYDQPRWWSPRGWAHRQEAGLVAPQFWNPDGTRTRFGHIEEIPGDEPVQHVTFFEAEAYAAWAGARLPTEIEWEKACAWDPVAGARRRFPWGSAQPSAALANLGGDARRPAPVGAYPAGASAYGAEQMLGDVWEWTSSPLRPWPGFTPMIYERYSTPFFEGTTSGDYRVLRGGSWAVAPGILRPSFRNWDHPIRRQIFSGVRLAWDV
Assay: 1H-NMR assay of product […]
Assay type: biochemical
Conditions: co-substrate γ-Glu-Cys

## C[N+](C)(C)[C@@H](Cc1cnc[nH]1)C(=O)[O-] [compound 2, hercynine]
  1H-NMR assay of product 3: Native EgtB reaction in ergothioneine biosynthesis
